Results published in the supplement of paper PMC11451515.

Key:
Details in all cases: 48 h
NOMO1 [1] = assay: cell viability relative to DMSO control; higher = less cytotoxic
In short: (§1)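 Before seeding, each leukemia line was adapted for at least four passages in each medium. NOMO1 or SEM cells (500 cells/well) and P12-Ichikawa cells (1000 cells/well) went into 1536-well plates at 5 μl, then received library compounds in DMSO by pin dosing across 11 threefold concentrations, 47 μM to 0.79 nM. Readout was CellTiter-Glo One luminescence after 48 h at 37°C, and viability is given as a per-plate percentage of DMSO wells, with cell-free wells as background.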

P12-Ichikawa [2] = assay: as above
In short: as §1

SEM cells [3] = assay: as above
In short: as §1

NOMO1 [4] = assay: AUC of viability dose-response curve (% viability x log10 dose units); higher = less sensitive
In short: (§2)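 Leukemia cells adapted to each medium were seeded in 1536-well plates (500 or 1000 cells/well). They were dosed with library compounds in DMSO at 11 threefold doses, 47 μM to 0.79 nM, for 48 h at 37°C. CellTiter-Glo One luminescence was normalised per plate to DMSO and cell-free wells. Area under the curve was integrated by trapezoidal rule over log10 doses on a four-parameter log-logistic fit; curves exceeding full viability were scaled and curves failing quality control removed.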

P12-Ichikawa [5] = assay: as above
In short: as §2

SEM cells [6] = assay: as above
In short: as §2

COc1c(C)cnc(Cn2cnc3c(Cl)nc(N)nc32)c1C
cell viability [%]
Details | NOMO1 [1] | P12-Ichikawa [2] | SEM cells [3]
HPLM + 10% dialyzed FBS, 0.000781 µM | 108 | 109 | 94.1
HPLM + 10% dialyzed FBS, 0.00234 µM | 112 | 114 | 106
HPLM + 10% dialyzed FBS, 0.00702 µM | 138 | 106 | 103
HPLM + 10% dialyzed FBS, 0.0211 µM | 120 | 125 | 112
HPLM + 10% dialyzed FBS, 0.0632 µM | 151 | 118 | 102
HPLM + 10% dialyzed FBS, 0.19 µM | 129 | 104 | 76.9
HPLM + 10% dialyzed FBS, 0.569 µM | 80.8 | 85.1 | 52.8
HPLM + 10% dialyzed FBS, 1.71 µM | 36.7 | 67.9 | 28.3
HPLM + 10% dialyzed FBS, 5.12 µM | 19.8 | 55.1 | 15.9
HPLM + 10% dialyzed FBS, 15.4 µM | 18.2 | 50.2 | 22.3
HPLM + 10% dialyzed FBS, 46.1 µM | 14.3 | 50.5 | 17.6
RPMI 5 mM glucose + 10% FBS, 0.000781 µM | 117 | 116 | 108
RPMI 5 mM glucose + 10% FBS, 0.00234 µM | 112 | 123 | 125
RPMI 5 mM glucose + 10% FBS, 0.00702 µM | 115 | 125 | 99.6
RPMI 5 mM glucose + 10% FBS, 0.0211 µM | 139 | 125 | 115
RPMI 5 mM glucose + 10% FBS, 0.0632 µM | 129 | 124 | 100
RPMI 5 mM glucose + 10% FBS, 0.19 µM | 119 | 94.1 | 77.3
RPMI 5 mM glucose + 10% FBS, 0.569 µM | 91.7 | 61.6 | 50
RPMI 5 mM glucose + 10% FBS, 1.71 µM | 26.5 | 50.5 | 25.5
RPMI 5 mM glucose + 10% FBS, 5.12 µM | 18.6 | 48 | 16.1
RPMI 5 mM glucose + 10% FBS, 15.4 µM | 14.3 | 40.9 | 22.9
RPMI 5 mM glucose + 10% FBS, 46.1 µM | 15.7 | 38.1 | 17.3
RPMI 5 mM glucose + 10% dialyzed FBS, 0.000781 µM | 119 | 110 | 115
RPMI 5 mM glucose + 10% dialyzed FBS, 0.00234 µM | 122 | 121 | 104
RPMI 5 mM glucose + 10% dialyzed FBS, 0.00702 µM | 121 | 119 | 106
RPMI 5 mM glucose + 10% dialyzed FBS, 0.0211 µM | 132 | 116 | 116
RPMI 5 mM glucose + 10% dialyzed FBS, 0.0632 µM | 128 | 115 | 124
RPMI 5 mM glucose + 10% dialyzed FBS, 0.19 µM | 101 | 99.8 | 78.6
RPMI 5 mM glucose + 10% dialyzed FBS, 0.569 µM | 90.1 | 58.3 | 52.9
RPMI 5 mM glucose + 10% dialyzed FBS, 1.71 µM | 34.9 | 47.8 | 33.1
RPMI 5 mM glucose + 10% dialyzed FBS, 5.12 µM | 18.2 | 45.1 | 15.8
RPMI 5 mM glucose + 10% dialyzed FBS, 15.4 µM | 18 | 40.9 | 25
RPMI 5 mM glucose + 10% dialyzed FBS, 46.1 µM | 20.2 | 37.9 | 22.1

AUC of viability dose-response curve
Details | NOMO1 [4] | P12-Ichikawa [5] | SEM cells [6]
HPLM + 10% dialyzed FBS | 322 | 376 | 306
RPMI 5 mM glucose + 10% FBS | 324 | 334 | 293
RPMI 5 mM glucose + 10% dialyzed FBS | 323 | 340 | 306

Nc1ccccc1NC(=O)c1ccc(CNC(=O)OCc2cccnc2)cc1
cell viability [%]
Details | NOMO1 [1] | P12-Ichikawa [2] | SEM cells [3]
HPLM + 10% dialyzed FBS, 0.000781 µM | 103 | 111 | 109
HPLM + 10% dialyzed FBS, 0.00234 µM | 127 | 118 | 120
HPLM + 10% dialyzed FBS, 0.00702 µM | 111 | 110 | 120
HPLM + 10% dialyzed FBS, 0.0211 µM | 108 | 113 | 111
HPLM + 10% dialyzed FBS, 0.0632 µM | 118 | 105 | 118
HPLM + 10% dialyzed FBS, 0.19 µM | 110 | 107 | 119
HPLM + 10% dialyzed FBS, 0.569 µM | 81.1 | 98.4 | 87.2
HPLM + 10% dialyzed FBS, 1.71 µM | 47 | 73.4 | 21.2
HPLM + 10% dialyzed FBS, 5.12 µM | 22.9 | 20 | 8.14
HPLM + 10% dialyzed FBS, 15.4 µM | 12.7 | 5.58 | 7.22
HPLM + 10% dialyzed FBS, 46.1 µM | 3.22 | 4.41 | 5.16
RPMI 5 mM glucose + 10% FBS, 0.000781 µM | 103 | 106 | 109
RPMI 5 mM glucose + 10% FBS, 0.00234 µM | 92.5 | 112 | 117
RPMI 5 mM glucose + 10% FBS, 0.00702 µM | 103 | 108 | 136
RPMI 5 mM glucose + 10% FBS, 0.0211 µM | 99 | 122 | 125
RPMI 5 mM glucose + 10% FBS, 0.0632 µM | 108 | 108 | 132
RPMI 5 mM glucose + 10% FBS, 0.19 µM | 103 | 102 | 120
RPMI 5 mM glucose + 10% FBS, 0.569 µM | 88.7 | 113 | 89.3
RPMI 5 mM glucose + 10% FBS, 1.71 µM | 58.6 | 71.6 | 12.2
RPMI 5 mM glucose + 10% FBS, 5.12 µM | 33.9 | 27.8 | 7.97
RPMI 5 mM glucose + 10% FBS, 15.4 µM | 10.7 | 4.9 | 6.97
RPMI 5 mM glucose + 10% FBS, 46.1 µM | 3.59 | 3.42 | 4.6
RPMI 5 mM glucose + 10% dialyzed FBS, 0.000781 µM | 115 | 109 | 94.3
RPMI 5 mM glucose + 10% dialyzed FBS, 0.00234 µM | 107 | 111 | 105
RPMI 5 mM glucose + 10% dialyzed FBS, 0.00702 µM | 110 | 108 | 99.8
RPMI 5 mM glucose + 10% dialyzed FBS, 0.0211 µM | 115 | 113 | 114
RPMI 5 mM glucose + 10% dialyzed FBS, 0.0632 µM | 123 | 114 | 124
RPMI 5 mM glucose + 10% dialyzed FBS, 0.19 µM | 97.3 | 113 | 104
RPMI 5 mM glucose + 10% dialyzed FBS, 0.569 µM | 94.2 | 99.6 | 76.3
RPMI 5 mM glucose + 10% dialyzed FBS, 1.71 µM | 53.9 | 69.1 | 13
RPMI 5 mM glucose + 10% dialyzed FBS, 5.12 µM | 24.7 | 21.4 | 8.44
RPMI 5 mM glucose + 10% dialyzed FBS, 15.4 µM | 9.54 | 5.4 | 7.8
RPMI 5 mM glucose + 10% dialyzed FBS, 46.1 µM | 2.99 | 3.96 | 5.76

AUC of viability dose-response curve
Details | NOMO1 [4] | P12-Ichikawa [5] | SEM cells [6]
HPLM + 10% dialyzed FBS | 326 | 350 | 313
RPMI 5 mM glucose + 10% FBS | 351 | 354 | 308
RPMI 5 mM glucose + 10% dialyzed FBS | 334 | 347 | 310
